From patent publication US6498125B2, “Pyridine ketones useful as herbicides” (Syngenta Participations AG, priority 1998, dated 2002)
Values belong to the compound of their own block, whether it stands above or below them.

How the values were obtained:
Stellaria = experiment: Example B4: post-emergence action, 250 g/ha; assay type: in vivo; conditions: 250 g of AS/ha, sprayed in the 2-3-leaf stage, 0.2% X77, 3 weeks, nine-level scale 1=complete damage, 9=no effect
Description: (§1) Monocotyledonous and dicotyledonous test plants are sown in pots in standard soil. In the 2-3- leaf stage of the test plants, the test substances are sprayed on (500 l of spray liquor/ha) as an aqueous suspension, prepared from a wettable powder WP10 according to the desired dosage (250 g of a.i./ha). 0.2% of X77 is added as wetting agent to the spray liquor. The test plants are then grown under optimum conditions in a greenhouse.
(§2) After a test period of 3 weeks, the test is evaluated with a nine4evel scale of ratings (1=complete damage, 9=no effect). Ratings of 1 to 4 (in particular 1 to 3) mean good to very good herbicidal action, 7-9 mean good tolerance.

Kochia = experiment: Example B4: post-emergence action, 250 g/ha; assay type: in vivo; conditions: 250 g of AS/ha, sprayed in the 2-3-leaf stage, 0.2% X77, 3 weeks, nine-level scale 1=complete damage, 9=no effect
Description: as §1, §2

Chenopodium = experiment: Example B4: post-emergence action, 250 g/ha; assay type: in vivo; conditions: 250 g of AS/ha, sprayed in the 2-3-leaf stage, 0.2% X77, 3 weeks, nine-level scale 1=complete damage, 9=no effect
Description: as §1, §2

Sida = experiment: Example B4: post-emergence action, 250 g/ha; assay type: in vivo; conditions: 250 g of AS/ha, sprayed in the 2-3-leaf stage, 0.2% X77, 3 weeks, nine-level scale 1=complete damage, 9=no effect
Description: as §1, §2

Amaranthus = experiment: Example B4: post-emergence action, 250 g/ha; assay type: in vivo; conditions: 250 g of AS/ha, sprayed in the 2-3-leaf stage, 0.2% X77, 3 weeks, nine-level scale 1=complete damage, 9=no effect
Description: as §1, §2

Abutilon = experiment: Example B4: post-emergence action, 250 g/ha; assay type: in vivo; conditions: 250 g of AS/ha, sprayed in the 2-3-leaf stage, 0.2% X77, 3 weeks, nine-level scale 1=complete damage, 9=no effect
Description: as §1, §2

[1] = system: Monocotyledonous and dicotyledonous test plants; experiment: Example B1: pre-emergence herbicidal action, 2 kg of AS/ha; assay type: in vivo; conditions: 3 weeks, scale 1-9; for pre-emergence action rating, Avena: test plant Avena; for pre-emergence action rating, Cyperus: test plant Cyperus; for pre-emergence action rating, Setaria: test plant Setaria; for pre-emergence action rating, Sinapis: test plant Sinapis; for pre-emergence action rating, Solanum: test plant Solanum; for pre-emergence action rating, Stellaria: test plant Stellaria
Description: Monocotyledonous and dicotyledonous test plants are sown in standard soil in plastic pots. Immediately after sowing, the test substances are sprayed on (500 l of water/ha) as an aqueous suspension (prepared from a 25% wettable powder (Example F3, b) according to WO 97/34485) or emulsion (prepared from a 25% emulsion concentrate (Example F1, c)), corresponding to a dosage of 2 kg of AS/ha. The test plants are then grown under optimum conditions in a greenhouse. After a test period of 3 weeks, the test is evaluated with a nine-level scale of ratings (1=complete damage, 9=no effect). Ratings of 1 to 4 (in particular 1 to 3) mean good to very good herbicidal action.

[2] = system: Monocotyledonous and dicotyledonous test plants; experiment: Example B2: post-emergence herbicidal action, 2 kg of AS/ha; assay type: in vivo; design: key: 1 = complete damage, 9 = no effect; conditions: 4- to 6-leaf stage, about 18 days, scale 1-9; for post-emergence action rating, Avena: test plant Avena; for post-emergence action rating, Setaria: test plant Setaria; for post-emergence action rating, Sinapis: test plant Sinapis; for post-emergence action rating, Solanum: test plant Solanum; for post-emergence action rating, Stellaria: test plant Stellaria
Description: Monocotyledonous and dicotyledonous test plants are grown in plastic pots with standard soil in a greenhouse and, in the 4- to 6-leaf stage, are sprayed with an aqueous suspension of the test substances of the formula 1, prepared from a 25% wettable powder (Example F3, b) according to WO 97134485) or with an emulsion of the test substances of the formula I, prepared from a 25% emulsion concentrate (Example F1, c) according to WO 97/34485), corresponding to a dosage of 2 kg of AS/ha (500 l of water/ha). The test plants are then grown further under optimum conditions in a greenhouse. After a test period of about 18 days, the test is evaluated with a nine-level scale of rating (1=complete damage, 9=no effect). Ratings of 1 to 4 (in particular 1 to 3) mean good to very good herbicidal action. In this test, the compounds of the formula I show strong herbicidal action.

Structure (SMILES): C#CCOc1ccc(C(=O)C2=C(O)C3CCC(C3)C2=O)c(C(F)(F)F)n1 (centres unmarked) [Compound 1.351]
Post-emergence action: Stellaria (rating) (Stellaria): 3
Post-emergence action: Kochia (rating) (Kochia): 3
Post-emergence action: Chenopodium (rating) (Chenopodium): 3
Post-emergence action: Sida (rating) (Sida): 3
Post-emergence action: Amaranthus (rating) (Amaranthus): 2
Post-emergence action: Abutilon (rating) (Abutilon): 5

Structure (SMILES): Cc1ccc(C(=O)C2=C(O)C3CCC(C3)C2=O)c(C(F)(F)F)n1 (centres unmarked) [Compound 1.361]
Post-emergence action: Stellaria (rating) (Stellaria): 3
Post-emergence action: Kochia (rating) (Kochia): 2
Post-emergence action: Chenopodium (rating) (Chenopodium): 2
Post-emergence action: Sida (rating) (Sida): 2
Post-emergence action: Amaranthus (rating) (Amaranthus): 2
Post-emergence action: Abutilon (rating) (Abutilon): 2

Structure (SMILES): Cc1nc(C(F)(F)F)ccc1C(=O)C1=C(Cl)C2CCC(C2)C1=O (centres unmarked) [Compound 1.398, 4-chloro-3-(2-methyl-6-trifluoromethyl-pyridine-3-carbonyl)bicyclo[3.2.1]oct-3-en-2-one]
pre-emergence action rating, Avena [1]: 2
pre-emergence action rating, Cyperus [1]: 1
pre-emergence action rating, Setaria [1]: 1
pre-emergence action rating, Sinapis [1]: 1
pre-emergence action rating, Solanum [1]: 1
pre-emergence action rating, Stellaria [1]: 1
post-emergence action rating, Avena [2]: 2
post-emergence action rating, Setaria [2]: 2
post-emergence action rating, Sinapis [2]: 1
post-emergence action rating, Solanum [2]: 2
post-emergence action rating, Stellaria [2]: 2
melting point: 137 to 138 °C

Structure (SMILES): Cc1nc(C(F)(F)F)ccc1C(=O)C1=C(N)C2CCC(C2)C1=O (centres unmarked) [Compound 1.399, 4-amino-3-(2-methyl-6-trifluoromethylpyridine-3-carbonyl)bicyclo[3.2.1]oct-3en-2-one]
melting point: 262 to 263 °C

Structure (SMILES): Cc1nc(C(F)(F)F)ccc1C(=O)C1=C(Sc2ccc(Cl)cc2)C2CCC(C2)C1=O (centres unmarked) [Compound 1.412, 4-(4-chlorophenylsulfanyl)-3-(2-methyl-6-trifluoromethylpyridine-3-carbonyl)bicyclo[3.2.1]oct-3-en-2-one]
melting point: 130 to 131 °C

Structure (SMILES): Cc1nc(C(F)(F)F)ccc1C(=O)C1=C(S(=O)(=O)c2ccc(Cl)cc2)C2CCC(C2)C1=O (centres unmarked) [Compound 1.414, 4-(4-chlorobenzenesulfonyl)-3-(2-methyl-6-trifluoromethylpyridine-3-carbonyl)bicyclo[3.2.1]oct-3-en-2-one]
melting point: 166 to 167 °C

Structure (SMILES): CSc1nc(C(=O)C2=C(O)C3CCC(C3)C2=O)ccc1C(F)(F)F (centres unmarked) [Compound 2.03]
melting point: 107 to 110 °C

Structure (SMILES): COc1nc(C(=O)C2=C(O)C3CCC(C3)C2=O)ccc1C(F)(F)F (centres unmarked) [Compound 2.038]
melting point: 111 to 113 °C

Structure (SMILES): O=C(C1=C(O)C2CCC(C2)C1=O)c1ncc(C(F)(F)F)cc1Cl (centres unmarked) [Compound 2.044]
melting point: 105 to 106 °C

Structure (SMILES): Cc1nc(C(F)(F)F)ccc1C(=O)C1=C(O)C(C)(C)ON(C)C1=O [Compound 4.009]
pre-emergence action rating, Avena [1]: 1
pre-emergence action rating, Cyperus [1]: 2
pre-emergence action rating, Setaria [1]: 1
pre-emergence action rating, Sinapis [1]: 2
pre-emergence action rating, Solanum [1]: 1
pre-emergence action rating, Stellaria [1]: 3
post-emergence action rating, Avena [2]: 1
post-emergence action rating, Setaria [2]: 1
post-emergence action rating, Sinapis [2]: 1
post-emergence action rating, Solanum [2]: 1
post-emergence action rating, Stellaria [2]: 1

Structure (SMILES): COCc1nc(C(F)(F)F)ccc1C(=O)C1=C(O)C(C)(C)ON(C)C1=O [Compound 4.021]
pre-emergence action rating, Avena [1]: 2
pre-emergence action rating, Cyperus [1]: 1
pre-emergence action rating, Setaria [1]: 2
pre-emergence action rating, Sinapis [1]: 2
pre-emergence action rating, Solanum [1]: 1
pre-emergence action rating, Stellaria [1]: 2
post-emergence action rating, Avena [2]: 2
post-emergence action rating, Setaria [2]: 2
post-emergence action rating, Sinapis [2]: 1
post-emergence action rating, Solanum [2]: 1
post-emergence action rating, Stellaria [2]: 2

Structure (SMILES): Cc1nc(C(F)(F)Cl)ccc1C(=O)C1=C(O)C(C)(C)ON(C)C1=O [Compound 4.124]
pre-emergence action rating, Avena [1]: 2
pre-emergence action rating, Cyperus [1]: 1
pre-emergence action rating, Setaria [1]: 2
pre-emergence action rating, Sinapis [1]: 2
pre-emergence action rating, Solanum [1]: 1
pre-emergence action rating, Stellaria [1]: 2
post-emergence action rating, Avena [2]: 2
post-emergence action rating, Setaria [2]: 2
post-emergence action rating, Sinapis [2]: 1
post-emergence action rating, Solanum [2]: 1
post-emergence action rating, Stellaria [2]: 2

Structure (SMILES): CC1=CC(C)(C)C(O)=C(C(=O)c2ccc(C(F)(F)F)nc2C)C1=O [Compound 5.008]
pre-emergence action rating, Avena [1]: 2
pre-emergence action rating, Cyperus [1]: 1
pre-emergence action rating, Setaria [1]: 1
pre-emergence action rating, Sinapis [1]: 2
pre-emergence action rating, Solanum [1]: 1
pre-emergence action rating, Stellaria [1]: 2
post-emergence action rating, Avena [2]: 2
post-emergence action rating, Setaria [2]: 3
post-emergence action rating, Sinapis [2]: 1
post-emergence action rating, Solanum [2]: 1
post-emergence action rating, Stellaria [2]: 2

Further lines, with some results ahead:

melting point: 95 to 97 °C
Structure (SMILES): O=C(C1=C(O)C2CCC(C2)C1=O)c1ccnc(C(F)(F)F)c1 (centres unmarked) [Compound 3.001]

melting point: 108 to 110 °C
Structure (SMILES): CSc1nccc(C(=O)C2=C(O)C3CCC(C3)C2=O)c1C#N (centres unmarked) [Compound 3.055]

melting point: 161 to 162 °C
Structure (SMILES): Cc1nc(C(F)(F)F)ccc1C(=O)C1=C(O)C(C)(C)C=C([S+](C)[O-])C1=O (centres unmarked) [Compound 5.083]

melting point: 215 to 216 °C
Structure (SMILES): Cc1nc(C(F)(F)F)ccc1C(=O)C1=C(O)C(C)(C)C=C(S(C)(=O)=O)C1=O [Compound 5.084]

melting point: 176 to 177 °C
Structure (SMILES): CCC(=O)NC1CC(=O)C(C(=O)c2ccc(C(F)(F)F)nc2C)=C(O)C1 (centres unmarked) [Compound 6.006]
post-emergence action rating, Avena [2]: 2
post-emergence action rating, Setaria [2]: 5
post-emergence action rating, Sinapis [2]: 2
post-emergence action rating, Solanum [2]: 2
post-emergence action rating, Stellaria [2]: 2

melting point: 186 to 187 °C
Structure (SMILES): Cc1nc(C(F)(F)F)ccc1C(=O)C1=C(O)CC(NC(=O)C(C)C)CC1=O (centres unmarked) [Compound 6.041]

melting point: 195 to 196 °C
Structure (SMILES): Cc1nc(C(F)(F)F)ccc1C(=O)C1=C(O)CC(NC(=O)Nc2ccccc2)CC1=O (centres unmarked) [Compound 6.076]

melting point: 163 to 164 °C
Structure (SMILES): Cc1nc(C(F)(F)F)ccc1C(=O)C1=C(O)CC(NC(=O)NC(C)(C)C)CC1=O (centres unmarked) [Compound 6.111]

melting point: 96 to 97 °C
Structure (SMILES): Cc1nc(C(F)(F)F)ccc1C(=O)c1c([S+](C)[O-])noc1C1CC1 (centres unmarked) [Compound 8.009, (5-cyclopropyl-3-methylsulfinylisoxazol-4-yl)-(2-methyl-6-trifluoromethylpyridin-3-yl)methanone]

melting point: 112 to 113 °C
Structure (SMILES): Cc1nc(C(F)(F)F)ccc1-c1onc([S+](C)[O-])c1C(=O)C1CC1 (centres unmarked) [Compound 9.009, cyclopropyl-[3-methanesulfinyl-5-(2-methyl-6-trifluoromethylpyridin-3yl)isoxazol4-yl]methanone]
